Key:
[1] = Plasma insulin in nude mice (Example 41); format: in vivo, Mus musculus; details: 120 minutes after the last dose (Day 28)
Description: Insulin was measured using Mesoscale Discovery's Mouse/Rat Insulin Kit (Rockville, Md., USA). Plasma samples collected at 120 minutes post last dose were thawed on ice and reagents from the kit were brought to room temperature. 150 μL of Blocker A Solution was added to each well, the plates were covered, and then incubated on a plate shaker (300-1000 rpm) for 1 hour at room temperature. After the first incubation, the wells were washed three times with phosphate buffered saline+Tween 20 (PBS-T), and then 40 μL of 1× Detection Antibody Solution followed by 10 μL of unknown neat samples or standards were added to the wells in duplicate. The plate was then covered and incubated on a plate shaker (300-1000 rpm) for 2 hours at room temperature. Following the second incubation, the wells were washed three times with PBS-T, and then 150 μL of 1× Read Buffer T was added to each well. The plates were immediately analyzed on the SECTOR Imager using the MSD Discovery Workbench software (Meso Scale Discovery). A 4-parameter logisitic model was utilized by the software to determine the concentrations of the unknown samples based on the standard curve it generated.

[2] = tested on: HCC70 human breast cancer xenografts; assay: Antitumor activity, multiple dosing schedules, HCC70 xenografts (Example 43); format: in vivo, Mus musculus; details: Day 35
Description: Compound A was prepared in 5% NMP+95% PEG400 every 5-7 days and stored at approximately 25° C., shielded from light. The control article used in this study was 5% NMP+95% PEG400. Compounds were completely dissolved in NMP by sonication followed by the addition of the appropriate volume of PEG400. The solution was vortexed and sonicated again to ensure complete mixing.
Low passage HCC70 cells (ATCC) were grown in RPMI (Life Technologies) supplemented with 10% Fetal Bovine Serum (FBS) (PAA Laboratories Pty Ltd) and 1× penicillin-streptomycin (Life Technologies) and supplied at a concentration of 5.0×10^7 cells/mL in serum-free RPMI and 50% Matrigel (BD Biosciences). HCC70 cells (5.0×10^6 cells/animal, 0.1-mL injection volume) were implanted subcutaneously (SC) into flank of female athymic nude mice. The animals used in this study are described in the following table.
Five-week old female athymic nude mice were inoculated SC in flank (cell suspension in serum free RPMI and 50% Matrigel) with 5.0×10^6 HCC70 cells. Tumor growth was monitored with vernier calipers. The mean TV (MTV) was calculated using the formula V=W^2×L/2. When the MTV reached approximately 160 to 180 mm^3, the animals were randomized into 13 treatment groups (n=5/group). […] Tumor growth and body weight were measured twice per week. Percent TGI and body weight change were calculated on Day 35. Treatment started on Day 0 for 28 days. Antitumor activity was determined by calculating the percent TGI using Equation 1: Percent TGI=(mean tumor volume [MTV] of the control group−MTV of a treated group)/MTV of the control group×100.
The differences in the tumor growth trends over time between pairs of treatment groups were assessed using linear mixed effects regression models. These models account for the fact that each animal was measured at multiple time points. A separate model was fit for each comparison, and the area under the curve (AUC) values for each treatment group were calculated using the predicted values from the model. The percent decrease in AUC (ΔAUC) relative to the reference group was then calculated.
Drug combinations were assessed for synergy using observed AUC values. The change in AUC relative to the control was calculated for both single agent treatment groups as well as the combination group. The interaction between the two compounds was then assessed by comparing the change in AUC observed in the combination group to the sum of the changes observed in both single agents. The results can be divided into four categories: synergistic, additive, sub-additive, and antagonistic. Further details regarding combination analyses are provided in the appendix. All p values less than 0.05 were considered significant.

Compound	Mean Plasma Insulin at 2 hr. ([1]; 60 mg/kg QD) [ng/mL]	Plasma Insulin Fold Over Control ([1]; 60 mg/kg QD) [fold]	Mean Plasma Insulin at 2 hr. ([1]; 70 mg/kg QD 3on/4off) [ng/mL]	Plasma Insulin Fold Over Control ([1]; 70 mg/kg QD 3on/4off) [fold]	Mean Plasma Insulin at 2 hr. ([1]; 140 mg/kg QD 3on/4off) [ng/mL]	Plasma Insulin Fold Over Control ([1]; 140 mg/kg QD 3on/4off) [fold]	Mean Plasma Insulin at 2 hr. ([1]; 210 mg/kg QW) [ng/mL]	Plasma Insulin Fold Over Control ([1]; 210 mg/kg QW) [fold]	TGI ([2]; 70 mg/kg QD 3on/4off PO, not significantly different from control) [%]	TGI ([2]; 140 mg/kg QD 3on/4off PO) [%]	TGI ([2]; 210 mg/kg QW PO, not significantly different from control) [%]	TGI ([2]; 420 mg/kg QW PO) [%]	Mean Plasma Insulin at 2 hr. ([1]; 0.3 mg/kg QD) [ng/mL]	Mean Plasma Insulin at 2 hr. ([1]; 1.0 mg/kg QD 3on/4off) [ng/mL]	Mean Plasma Insulin at 2 hr. ([1]; 3.0 mg/kg QW) [ng/mL]	TGI ([2]; 0.3 mg/kg QD PO) [%]	TGI ([2]; 1.0 mg/kg QD 3on/4off PO) [%]	TGI ([2]; 3.0 mg/kg QW PO) [%]
Nc1nc2cc(-c3ccc4ncc(C(=O)N5CCOCC5)n4c3)ccc2o1 [Compound A]	0.7	1.47	1.51	3.16	2.39	5.01	3.96	8.29	19.4	41.0	21.0	40.8						
CC(C)n1nc(-c2ccc3oc(N)nc3c2)c2c(N)ncnc21 [Compound B]													3.74	2.83	5.94	36.9	47.2	35.8
